Data taken from article PMC3838641 (Biochemistry, 2013).

Columns and labels:
[1] = target: T1, orotidine 5'-monophosphate decarboxylase (ScOMPDC) (Saccharomyces cerevisiae, UniProt P03962, R235A); assay: UV decarboxylation kinetics of truncated substrate; type: biochemical
T1 sequence (P03962 2-267 R235A): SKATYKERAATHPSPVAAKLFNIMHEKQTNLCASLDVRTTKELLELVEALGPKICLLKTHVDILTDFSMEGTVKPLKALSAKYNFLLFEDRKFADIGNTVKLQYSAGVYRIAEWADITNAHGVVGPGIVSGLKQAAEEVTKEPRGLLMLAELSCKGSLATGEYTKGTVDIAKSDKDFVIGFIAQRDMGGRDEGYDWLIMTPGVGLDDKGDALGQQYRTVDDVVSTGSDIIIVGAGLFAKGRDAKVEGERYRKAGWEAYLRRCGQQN

[2] = target: T1, orotidine 5'-monophosphate decarboxylase (ScOMPDC)
[3] = target: T1, orotidine 5'-monophosphate decarboxylase (ScOMPDC); assay: […] NMR deuterium exchange kinetics with purified enzyme, Michaelis-Menten fit; type: biochemical

How did the “FEO + HPO3^2- / (kcat/Km)E” value [1] turn out when O=C(O)c1c(F)c(=O)[nH]c(=O)n1[C@@H]1OC[C@@H](O)[C@H]1O [FEO, 1-(β-D-erythrofuranosyl)-5-fluoroorotic acid] was run?
The value was 12 M⁻¹ s⁻¹.

For O=[PH](O)O [HPO3^2−, phosphite dianion], which “FEO + HPO3^2- / (kcat/Km)E•HPi/Kd (M^-2 s^-1)” value [2] is on record?
Its value is 250 ± 15 M^−2 s^−1.

How did the Kd [3] turn out when O=c1[nH]c(=O)n([C@@H]2O[C@H](COP(=O)(O)O)[C@@H](O)[C@H]2O)cc1F [h-FUMP, 5-fluorouridine 5'-monophosphate] was run?
The Kd was 5 mM.
